Laboratory results taken from patent US20180171411A1, “GFRalpha1 AS A BIOMARKER FOR CISPLATIN-INDUCED CHEMORESISTANCE AND METASTASIS” (THE BOARD OF REGENTS OF THE UNIVERSITY OF TEXAS SYSTEM, priority 2015, published 2018).

Assays:
MG-63/GFRα1 tumors = experiment: MG-63/GFRα1 xenograft in BALB/c nude mice; assay type: in vivo; conditions: CQ 60 mg/kg, cisplatin 3 mg/kg, once a week
Method: FIG. 5. GFRα1-mediated autophagy promotes chemoresistance and tumor growth in vivo. (a) BALB/c nude mice (n =40) were injected with MG-63 cells that were transfected with either control or GFRα1 expressing vector. Tumor volume was measured every 3 or 4 days. Data are shown as mean±SEM. ** p<0.05. (b) BALB/c nude mice (n=20) were injected with MG-63 cells that were transfected with either control or GFRα1 shRNA. Tumor volume was measured every 3 or 4 days. Data are shown as mean±SEM. ** p<0.05. (c) Tumors that were generated from mice injected with MG-63 cells containing GFRα1 expressing vector were directly injected with PBS, CQ, cisplatin, or cisplatin+CQ. Tumor volume was measured every 4 days. Data are shown as mean±SEM. ** p<0.05 vs PBS, CQ, or cisplatin-treated tumors. (d) Left, representative images of immunofluorescence staining of HMGB1 in a section from tumors generated from mice injected with MG-63 cells containing GFRα1 expressing vector and then treated with PBS, CQ, cisplatin, or cisplatin+CQ. Right, quantitative analysis of percentage of cytoplasmic HMGB1-positive cells in HMGB1-positive tumors. The values are represented as a mean±s.d.m. (n=3). ** denotes p<0.05 by t-test. (e) Left, representative images of TUNEL-positive cells in a section from tumors generated from mice injected with MG-63 cells containing GFRα1 expressing vector and then treated with PBS, CQ, cisplatin, or cisplatin+CQ. Right, quantitative analysis of percentage of TUNEL-positive cells in HMGB1-positive tumors. The values are represented as a mean±s.d.m. (n=3). ** denotes p<0.05 by t-test. (0 Survival rate of mice injected with MG-63 cells containing GFRα1 expressing vector and then treated with either cisplatin or cisplatin+CQ. (g) Representative images of immunohistochemical staining of GFRα1 in a section from human osteosarcoma patient before and after cisplatin treatment. (h) Representative images of immunofluorescence staining of GFRα1 and HMGB1 in a section from human osteosarcoma patient before and after cisplatin treatment.
Tumor formation in nude mice. The mice used in this study were 6-week-old female BALB/c nude mice purchased from Orient Bio Inc. (Seongnam, Korea). […] The tumor size was measured with a caliper every 3 or 4 days. […] The tumor size was measured with a caliper every 4 days. […] were calculated from caliper measurements of tumor dimensions in mm using the formula for a prolate ellipsoid: (L×W^2)/2 where L is the longer of the two-measurements.
Statistical analysis. Survival data was analyzed by the Kaplan-Meier and log-rank test with GraphPad Prism v5.04 (GraphPad Software, La Jolla Calif.). Plating efficiency (PE, %)=(Number of colonies counted/Number of cells plated)×100. […] All values are expressed as the mean±standard deviation (SD). […]

[1] = system: GFRα1-overexpressing MG-63 clone #4; experiment: Colony-forming assay in the presence of cisplatin; assay type: cell-based, human; conditions: cisplatin 20 μM 10 days; 3-MA (10 μM), Baf (100 nM), CQ (30 μg/ml)
Source text: FIG. 3. […] Scale bar, 20 μm. […] Scale bar, 20 μm. […] Scale bar, 20 μm.

[2] = system: Src/AMPK signaling in MG-63 cells; experiment: Immunoblot of Src/AMPK/mTOR signaling; assay type: cell-based, human; conditions: then cisplatin 20 μM 24 hr; for LC3-II expression: inhibitor
Method: FIG. 4. GFRα1 regulates autophagy by Src/AMPK signaling in osteosarcoma cells. (a-b) Immunoblot analysis of osteosarcoma cell lysates with antibodies specific for GFRα1, p-Src, Src, p-AMPK, AMPK, p-mTOR, mTOR, p-p70 S6Kinase, Beclin 1, HMGB1, LC3, and β-actin. (a) MG-63 and cells were treated with cisplatin (20 μM) for 24 hr. (b) Control and GFRα1-deficient MG-63 cells were treated with cisplatin (20 μM) for 24 hr. (c-e) Immunoblot analysis of osteosarcoma cell lysates with antibodies specific for GFRα1, p-Src, Src, p-AMPK, AMPK, LC3, and β-actin. (c) Control and Src-deficient MG-63 cells were treated with cisplatin (20 μM) for 24 hr. (d) MG-63 cells were cultured in the presence or absence of PP1 (5 μM) and then treated with cisplatin (20 μM) for 24 hr. (e) MG-63 cells were cultured in the presence or absence of Compound C and then treated with cisplatin (20 μM) for 24 hr. (f) Cell viability of MG-63 cells after cisplatin treatment in the presence of PP1. MG-63 cells were cultured with DMSO or PP1 (2, 5 μM) and then treated with cisplatin (20 μM) for 24 hr. Cell viability was measured using the WST-1 assay. The values are represented as a mean±s.d.m. (n=3). ** denotes p<0.05 by t-test. (g) Cell viability of MG-63 cells after cisplatin treatment in the presence of Compound C. MG-63 cells were cultured with DMSO or Compound C (5, 10 μM) and then treated with cisplatin (20 μM) for 24 hr. Cell viability was measured using the WST-1 assay. The values are represented as a mean±s.d.m. (n=3). ** denotes p<0.05 by t-test.
(§1) Immunoblotting. Cells were washed with PBS and lysed in RIPA Buffer (Pierce, Rockford, Ill.). The protein content was determined using a dye-binding microassay (Bio-Rad, Hercules, Calif.), and 10-50 μg protein per lane was electrophoresed on 4-12% SDS polyacrylamide gels. Proteins were blotted onto Hybond ECL membranes (Amersham Pharmacia Biotech, Piscataway, N.J.). Two protein ladders were used for molecular weight determination (GenDEPOT, Barker, Tex.). The blotted proteins were detected using an enhanced chemiluminescence detection system (iNtRON, Seoul, Korea). Data were quantified and analyzed with Image-J software.

[3] = system: GFRα1-deficient MG-63 and U-2 OS cells; experiment: WST-1 cell viability of GFRα1-deficient (siRNA) osteosarcoma cells; assay type: cell-based, human; conditions: GFRα1 siRNA 48 h, then agent 24 h
Method: FIG. 6. Cell viability of GFRα1-deficient osteosarcoma cells after treatment of chemotherapeutic agents. MG-63 and U-2 OS cells were transfected with either control siRNA or GFRα1 siRNA for 48 h and then treated with different concentrations of doxorubicin, cisplatin, or methotrexate for 24 h. Cell viability was measured using the WST-1 assay. The values are represented as a mean±s.d.m. (n=3). ** denotes P<0.05 by t-test. (a) MG-63 cells. (b) U-2 OS cells.
Small interfering RNA (siRNA)-based Experiments. Human GFRα1 siRNA, Beclin 1 siRNA, HMGB1 siRNA, AMPK siRNA, c-Src siRNA, NFκB p50 siRNA, APE siRNA and Negative (control) siRNA were purchased from Santa Cruz Biotechnology. Cell lines were transiently transfected with siRNA duplexes using Lipofectamine® RNAiMAX (Life Technologies) according to manufacturer's instructions.
Cell viability assays. WST-1 cell viability assay reagent was purchased from Roche. Equal numbers of cells were seeded in triplicate wells in 48-well plates and maintained in growth medium containing 10% FBS). Cells were cultured with PBS, GDNF (50 ng/mL), GDNF (50 ng/ml)+cisplatin (20 μM), or cisplatin (20 μM) in the presence of serum for 24 hr. Cells were also preincubated with inhibitors (3-MA, PP1, Compound C, Baf and CQ) for 1 hr before stimulating with PBS, GDNF, GDNF+cisplatin, or cisplatin. WST-1 reagent was then treated to the cells at the indicated times and incubated for 2 hr at 37° C. Cell viability was determined by measuring the absorbance after adding WST-1. The spectrophotometric absorbance of the samples was measured using an Ultra Multifunctional Microplate Reader (Tecan, Durham, N.C.) at 450 nm. Experiments were done at least in triplicate using separate cultures.

[4] = system: GFRα1 expression in MG-63 and U-2 OS cells; experiment: Immunoblot of GFRα1 expression after chemotherapeutic agents; assay type: cell-based, human; conditions: doxorubicin 5 μM, cisplatin 20 μM, methotrexate 1 mM, 24 hr
Method: FIG. 1. Cisplatin induces GFRα1 expression in osteosarcoma cells. (a-c) Immunoblot analysis of osteosarcoma cell lysates with antibodies specific for GFRα1 and β-actin. (a) MG-63 and U-2 OS cells were treated with doxorubicin (5 μM), cisplatin (20 μM), or methotrexate (1 mM) for 24 hr. Immunoblot analysis of GFRα1 (left) and quantification of GFRα1 expression (right) after treatment of chemotherapeutic agents. (b) MG-63 and U-2 OS cells were treated with different concentrations of cisplatin for 24 hr. (c) MG-63 and U-2 OS cells were treated with cisplatin (20 μM) and collected at the indicated time. (d and e) Quantitative real-time PCR of GFRα1 mRNA expression after cisplatin treatment. Representative images (top) and quantitative analysis (bottom) of GFRα1 mRNA expression. The values are presented as a mean±s.d.m (n=3). ** denotes p<0.05 by t-test. (d) MG-63 and U-2 OS cells were treated with different concentrations of cisplatin for 24 hr. (e) MG-63 and U-2 OS cells were treated with cisplatin (20 μM) and collected at the indicated time.
as §1

**Q.** For `CCN(CC)CCCC(C)Nc1ccnc2cc(Cl)ccc12` (centres unmarked) [CQ, chloroquine], which tumor progression (MG-63/GFRα1 tumors) is on record?
**A.** The tumor progression was “allowed the tumors to survive”.

**Q.** What about the “tumor volume compared to PBS-treated mice” value (MG-63/GFRα1 tumors) of the same compound?
**A.** Its value is “decreased”.

**Q.** What about the number of colonies [1] of the same compound?
**A.** The number of colonies was “effectively reduced”.

**Q.** What does the source list for `Cc1ccc(-c2nn(C(C)(C)C)c3ncnc(N)c23)cc1` [PP1]?
**A.** AMPK phosphoryation ([2]; PP1 5 μM): decreased; LC3-II expression [2]: decreased

**Q.** What does the source list for `c1cc(-c2cnn3cc(-c4ccc(OCCN5CCCCC5)cc4)cnc23)ccn1` [compound C]?
**A.** Src phosphorylation ([2]; Compound C): no effect; LC3-II expression [2]: decreased

**Q.** Which results are given for `COc1cccc2c1C(=O)c1c(O)c3c(c(O)c1C2=O)C[C@@](O)(C(=O)CO)C[C@@H]3O[C@H]1C[C@H](N)[C@H](O)[C@H](C)O1` [doxorubicin]?
**A.** cell proliferation of GFRα1-deficient cells compared to control cells [3]: little or no effect; level of GFRα1 expression [4]: no or little effect

**Q.** `CN(Cc1cnc2nc(N)nc(N)c2n1)c1ccc(C(=O)N[C@@H](CCC(=O)O)C(=O)O)cc1` [methotrexate] was tested. Which “cell proliferation of GFRα1-deficient cells compared to control cells” value [3] did it give?
**A.** Its value is “little or no effect”.

**Q.** What about the “level of GFRα1 expression” value [4] of the same compound?
**A.** The value was “no or little effect”.
